Results from paper PMC7519686, “Engineering and application of a biosensor with focused ligand specificity” (Nature Communications, 2020).

Assays:
Format in all cases: binding
LysG-A219L [1] = biological target: T1, LysG-A219L (Corynebacterium glutamicum, UniProt P94632, A219L); experiment: ITC with purified protein (fixed stoichiometry of two ligands per tetramer)
LysG [2] = biological target: T2, LysG (Corynebacterium glutamicum, UniProt P94632); experiment: X-ray co-crystal structure ([…] Å) and ITC; parameters: full-length LysG
T2 sequence (P94632 1-290): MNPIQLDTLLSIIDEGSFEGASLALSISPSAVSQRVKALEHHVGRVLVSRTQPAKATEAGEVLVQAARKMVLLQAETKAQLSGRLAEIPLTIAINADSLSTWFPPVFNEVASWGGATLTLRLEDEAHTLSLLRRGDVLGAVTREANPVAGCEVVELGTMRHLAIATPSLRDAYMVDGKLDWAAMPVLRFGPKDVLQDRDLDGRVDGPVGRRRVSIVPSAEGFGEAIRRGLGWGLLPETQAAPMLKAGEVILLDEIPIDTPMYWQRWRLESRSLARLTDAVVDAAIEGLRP

LysG [3] = biological target: T2, LysG; experiment: ITC with purified protein
LysG-A219L [4] = biological target: T1, LysG-A219L; experiment: ITC with purified protein
LysG [5] = biological target: T2, LysG; experiment: ITC with purified protein (fixed stoichiometry of two ligands per tetramer)

For N=C(N)NCCC[C@H](N)C(=O)O [L-arginine], the Kd (LysG-A219L [1]) was 9620 µM and the Kd (LysG [2]) was 1150 µM.

Work on N[C@@H](Cc1c[nH]cn1)C(=O)O [L-histidine] yielded a Kd (LysG [3]) of 16 µM and a Kd (LysG-A219L [4]) of 20.7 µM.

In the case of NCCCC[C@H](N)C(=O)O [L-lysine], the Kd (LysG [5]) is reported as 3290 µM.
